Read-outs that look alike come from different tables or passages of the source. Marks after values point to notes of the source that are not given here.
What was measured:
HLA-B*58:01 [1] = target: T1, HLA-B*58:01 (Homo sapiens, UniProt P01889, A329T/C349S/D201E/D98Y/E176V/E187L/E204Q/E69T/G107R/I218V/I90N/K202T/L105A/L119I/N104I/N87E/Q89R/Q94S/R106L/R155S/R180L/R86G/S101N/S121R/S35A/S48A/T118I/V127L/V306I/V36M/Y140S/Y91M); assay type: binding; conditions: percent relative the binding of positive control peptide […]; duplicated experiments; positive binder >40%
HLA-B*58:01 [2] = target: T1, HLA-B*58:01; assay type: binding
HLA-B*58:01 [3] = target: T1, HLA-B*58:01; assay type: binding; conditions: time points 0-8 h
HLA-A*02:01 [4] = target: T2, HLA-A*02:01 (Homo sapiens, UniProt P04439, D140Y/D185E/D98H/E176V/E277Q/G131W/G231S/I119V/I121R/I166T/I218V/L300P/L318F/N151K/N90K/P208A/P217A/Q86G/Q94H/R138H/R169H/T345S); conditions: percent relative the binding of a positive control peptide, cited from earlier work
HLA-A*02:01 [5] = target: T2, HLA-A*02:01; conditions: cited from earlier work
HLA-A*02:01 [6] = target: T2, HLA-A*02:01; assay type: binding
HLA-A*02:01 [7] = target: T2, HLA-A*02:01; assay type: binding; remark: listed apart in the source
HLA-A*02:01 [8] = target: T2, HLA-A*02:01; assay type: binding; remark: listed apart in the source
HLA-A*24:02 [9] = target: T3, HLA-A*24:02 (Homo sapiens, UniProt P04439, D101N/D140Y/D185E/E176V/E190D/F33S/G103R/G107R/I119L/I121M/I306V/K335N/L105A/L180Q/L300P/N151K/N90K/Q86E/Q94H/R106L/R138H/R89G/T104I/T345S/V100E/W191G/Y123F); assay type: binding
HLA-A*24:02 [10] = target: T3, HLA-A*24:02; assay type: binding; remark: listed apart in the source
HLA-A*24:02 [11] = target: T3, HLA-A*24:02; assay type: binding; remark: listed apart in the source
HLA-A*30:01 = HLA-A*30:01 (Homo sapiens, UniProt P04439, D140H/D185E/E176W/F33S/G80R/H175R/K168Q/R138E/R41S); assay type: binding; conditions: percent relative the binding of positive control peptide […]; duplicated experiments; positive binder >40%
HLA-A*30:02 [12] = target: T4, HLA-A*30:02 (Homo sapiens, UniProt P04439, D101N/D140H/D185E/E176R/F33S/G80R/H175R/K168Q/Q94H/R138E/R41S/V100E); assay type: binding; conditions: percent relative the binding of positive control peptide […]; duplicated experiments; positive binder >40%
HLA-A*30:02 [13] = target: T4, HLA-A*30:02; assay type: binding
HLA-A*30:02 [14] = target: T4, HLA-A*30:02; assay type: binding; conditions: time points 0-8 h
HLA-A*68:01 [15] = target: T5, HLA-A*68:01 (Homo sapiens, UniProt P04439, A269V/D185E/E176V/E277Q/E87N/F33Y/G231S/I121M/I166T/I218V/L180W/L300P/L318F/N151K/P208A/P217A/Q86R/R169H/T345S); assay type: binding; conditions: duplicated experiments, positive binder >40%
HLA-B*07:02 = HLA-B*07:02 (Homo sapiens, UniProt P01889); assay type: binding
HLA-C*07:01 [16] = target: T6, HLA-C*07:01 (Homo sapiens, UniProt P10321, K90N/S123Y); assay type: binding; conditions: percent relative the binding of positive control peptide […]; duplicated experiments; positive binder >40%
HLA-C*07:01 [17] = target: T6, HLA-C*07:01; assay: affinity assay (ED50); assay type: binding
HLA-C*07:01 [18] = target: T6, HLA-C*07:01; assay: off-rate assay (t1/2); assay type: binding; conditions: time points 0-8 h
HLA-A*02:01 [19] = target: T2, HLA-A*02:01; conditions: cited from earlier work; remark: listed apart in the source
HLA-A*30:02 [20] = target: T4, HLA-A*30:02; conditions: percent relative the binding of a positive control peptide, cited from earlier work
HLA-A*30:02 [21] = target: T4, HLA-A*30:02; conditions: cited from earlier work
HLA-A*30:02 [22] = target: T4, HLA-A*30:02; conditions: cited from earlier work; remark: listed apart in the source
HLA-A*68:01 [23] = target: T5, HLA-A*68:01; assay type: binding
HLA-A*68:01 [24] = target: T5, HLA-A*68:01; assay type: binding; conditions: time points 0-8 h
HLA-A*24:02 [25] = target: T3, HLA-A*24:02; conditions: percent relative the binding of a positive control peptide, cited from earlier work
HLA-A*24:02 [26] = target: T3, HLA-A*24:02; conditions: cited from earlier work
HLA-A*24:02 [27] = target: T3, HLA-A*24:02; conditions: cited from earlier work; remark: listed apart in the source
[28] = percent relative the binding of positive control peptide […]

## QSLGAEIAV [Rv0288_26–34wt]
HLA-B*58:01 [1]
  Bind B*58:01: 30%
HLA-B*58:01 [2]
  Aff B*58:01 (ED50): 200000 nM
HLA-B*58:01 [3]
  O-rate B*58:01 (t1/2): 6 min
HLA-A*02:01 [4]; […]
  Bind A*02:01: 48* percent
HLA-A*02:01 [5]
  Aff A*02:01 (ED50): 2e-06 M

## YQSGLSIVM
HLA-A*02:01 [6]
  Bind A*02:01: 142
HLA-A*02:01 [7]
  Aff A*02:01 (ED50): 50 nM
HLA-A*02:01 [8]
  O-rate A*02:01 (t1/2): 3.1 h
HLA-A*24:02 [9]
  Bind A*24:02: 59
HLA-A*24:02 [10]
  Aff A*24:02 (ED50): 500 nM
HLA-A*24:02 [11]
  O-rate A*24:02 (t1/2): 1.5 h
HLA-A*30:01
  Bind A*30:01: 27%
HLA-A*30:02 [12]
  Bind A*30:02: 123%
HLA-A*30:02 [13]
  Aff A*30:02 (ED50): 8E -07 M
HLA-A*30:02 [14]
  O-rate A*30:02 (t1/2): 0.4 h
HLA-A*68:01 [15]; [28]
  Bind A*68:01: 7%
HLA-B*07:02
  Bind B*07:02: 2
HLA-B*58:01 [1]
  Bind B*58:01: 0%
HLA-C*07:01 [16]
  Bind C*07:01: 68%
HLA-C*07:01 [17]
  Aff C*07:01 (ED50): 7E -09 M
HLA-C*07:01 [18]
  O-rate C*07:01 (t1/2): 0.3 h

## SQIMYNYPA [Rv0288_2–10wt]
HLA-A*02:01 [4]; […]
  Bind A*02:01: 78* percent
HLA-A*02:01 [5]
  Aff A*02:01 (ED50): 4E-07* M
HLA-A*02:01 [19]
  O-rate A*02:01 (t1/2): 4.9* h
HLA-A*30:02 [20]; […]
  Bind A*30:02: 46** percent
HLA-A*30:02 [21]
  Aff A*30:02 (ED50): 2000 nM
HLA-A*30:02 [22]
  O-rate A*30:02 (t1/2): 0.3 h

## AYHAMSSTH [Rv0288_68–76wt]
HLA-A*30:02 [20]; wild-type epitopes marked **
  Bind A*30:02: 70** percent
HLA-A*30:02 [21]; wild-type epitopes marked **
  Aff A*30:02 (ED50): 300 nM
HLA-A*30:02 [22]; wild-type epitopes marked **
  O-rate A*30:02 (t1/2): 1.2 h

## HAMSSTHEA [Rv0288_70–78]
HLA-A*68:01 [15]; [28]
  Bind A*68:01: 77%
HLA-A*68:01 [23]
  Aff A*68:01 (ED50): 6000 nM
HLA-A*68:01 [24]
  O-rate A*68:01 (t1/2): 0.5 h
HLA-B*58:01 [1]
  Bind B*58:01: 16%
HLA-C*07:01 [16]
  Bind C*07:01: 6%
HLA-A*02:01 [4]; […]
  Bind A*02:01: 43* percent
HLA-A*02:01 [5]
  Aff A*02:01 (ED50): 6e-06 M
HLA-A*02:01 [19]
  O-rate A*02:01 (t1/2): 2.5 h
HLA-A*30:02 [20]; […]
  Bind A*30:02: 88** percent
HLA-A*30:02 [21]
  Aff A*30:02 (ED50): 300 nM
HLA-A*30:02 [22]
  O-rate A*30:02 (t1/2): 0.6 h

## MLGHAGDMA [Rv0288_11–19wt]
HLA-A*02:01 [4]; wild-type epitopes marked *
  Bind A*02:01: 67* percent
HLA-A*02:01 [5]; wild-type epitopes marked *
  Aff A*02:01 (ED50): 7e-07 M
HLA-A*02:01 [19]; wild-type epitopes marked *
  O-rate A*02:01 (t1/2): 1.4 h

## DLVRAYHAM [Rv0288_64–72wt]
HLA-A*68:01 [15]; percent relative the binding of positive control peptide KTGGPIYKR
  Bind A*68:01: 34%
HLA-A*68:01 [23]; peptide titrated 10−4 to 10−9 M
  Aff A*68:01 (ED50): 400000 nM
HLA-A*68:01 [24]
  O-rate A*68:01 (t1/2): 3.3 h
HLA-A*24:02 [25]; wild-type epitopes marked *
  Bind A*24:02: 31* percent
HLA-A*24:02 [26]; wild-type epitopes marked *
  Aff A*24:02 (ED50): 2000 nM
HLA-A*24:02 [27]; wild-type epitopes marked *
  O-rate A*24:02 (t1/2): 2.9 h

## GHAGDMAGY [Rv0288_13–21wt]
HLA-A*30:02 [20]; wild-type epitopes marked **
  Bind A*30:02: 71** percent
HLA-A*30:02 [21]; wild-type epitopes marked **
  Aff A*30:02 (ED50): 40 nM
HLA-A*30:02 [22]; wild-type epitopes marked **
  O-rate A*30:02 (t1/2): 1.3 h

## SLGAEIAVE [Rv0288_27–35wt]
HLA-A*02:01 [4]; wild-type epitopes marked *
  Bind A*02:01: 28* percent
HLA-A*02:01 [5]; wild-type epitopes marked *
  Aff A*02:01 (ED50): 1e-05 M
HLA-A*02:01 [19]; wild-type epitopes marked *
  O-rate A*02:01 (t1/2): 1.8 h

## GYAGTLQSL [Rv0288_20–28wt]
HLA-A*24:02 [25]; […]
  Bind A*24:02: 76* percent
HLA-A*24:02 [26]
  Aff A*24:02 (ED50): 300 nM
HLA-A*24:02 [27]
  O-rate A*24:02 (t1/2): 3.7 h

Source: paper PMC3608651, “A Broad Profile of Co-Dominant Epitopes Shapes the Peripheral Mycobacterium tuberculosis Specific CD8+ T-Cell Immune Response in South African Patients with Active Tuberculosis” (PLoS ONE, 2013)
